In patent publication US6255080A, “Bacteriocins produced by ruminal bacteria” (priority 1998, dated 2001):
“Also recorded” adds a separate entry of the source. Each block holds one compound with its values, some of them ahead of it.

Key:
indicator = assay: Effect of detergents on the indicator; format: cell-based
Description: Further increases in carbohydrate beyond 2% (w/v) had no further effect on enhancing production in liquid culture. As several bacteriocins are known to be cell associated (Jack et al., 1995), bound activity was assayed for by washing pelleted cells with various detergents (Triton X-100, Tween 80, Tween 20). […] However, both Tween 80 and Tween 20 appeared to have no detrimental efLect on the indicator at levels of up to 1.0% (v/v).

[1] = system: a-chymotrypsin or pronase; assay: Protease sensitivity in liquid (spent culture medium or purified bacteriocin), drop test; format: in vitro ADME; conditions: purified bacteriocin treated prior to sample preparation
Description: Determination of protease sensitivity of bacteriocin-like activity in liquid cultures was carried out as follows: 10 μl of a stock solution (10 mg/ml) of each protease was added to 100 μl of either spent culture medium or the purified bacteriocin, and incubated at 37° C. for 2 hours, after which activity was assessed using a drop test (Tagg et al., 1976). Controls consisted of protease only (1 in 10 dilution) spotted directly onto an overlay containing the indicator organism.
The purity of the peptide was assessed using Triacine-sodium-dodecyl-sulphate-polyacrylamide gel electrophoresis analysis followed by silver staining. […] Protease sensitivity of the isolated bacteriocin was identical to the protease sensitivity of the inhibitor produced in the deferred plate test (see above).

[2] = system: indicator strain of B. fibrisolvens; assay: Drop (spot) test and diffusion well assay of inhibitory activity; format: cell-based, Butyrivibrio fibrisolvens; conditions: spot testing, peptide purified by reverse phase chromatography
Description: Isolates found to produce bacteriocin-like activity using the deferred plating technique were tested for the production of bacteriocin-like activity in liquid cultures. Briefly, following overnight growth in L-10 medium, a 1.0 ml sample of the culture was centrifuged to remove the cells, and a 100 μl aliquot dropped onto a sterile petri dish and sterilised by exposure to shortwave ultraviolet light for a five minute period. Bacteriocin-like activity within the uv-sterilized spent culture fluid was assayed using both a drop test and diffusion well assay (Tagg et al., 1976). All steps were carried out under anerobic conditions in a glove box.
The active component was purified by FPLC ([…] System, Pharmacia) using reverse phase chromatography. All steps were carried out at 4° C. Solvents consisted of dH2 O (buffer A) and 2-propanol (buffer B), both of which contained 0.1% trifluoroacetic acid. A 0.5 ml aliquot of the crude bacteriocin preparation containing […] was injected onto a Resource RPC 3.0 ml column (Pharmacia), washed with two column volumes of buffer A, and eluted from the column with a gradient from 100% buffer A to 100% buffer B, at a flow rate of 1.0 ml/minute. The elution was monitored at 206 nm. […]

level with no detrimental effect on the indicator (indicator): up to 1.0 % (v/v)
Compound: CCCCCCCC/C=C\CCCCCCCC(=O)OCCOCC(OCCO)C1OCC(OCCO)C1OCCO (centres unmarked) [Tween 80]

Compound: Butyrivibriocin AR10
effect of a-chymotrypsin treatment on inhibitory activity [1]: completely eliminated inhibitory activity
effect of pronase treatment on inhibitory activity [1]: completely eliminated inhibitory activity
inhibitory activity of the purified peptide [2]: inhibitory activity; also recorded: inhibitory to the growth

Compound: Triton X-100
level very detrimental to the indicator (indicator; detergent): less than 0.1 % (v/v)
